ChEMBL document CHEMBL1201862, “PubChem BioAssay data set” (2004)
Calls of active or inactive are those of the source.

Columns and labels:
NS3 = NS3 (Hepatitis C virus, UniProt A3EZJ3); assay: PubChem AID 2173; parameters: species or system Hepacivirus hominis
Large T antigen = Large T antigen (Simian virus 40, UniProt P03070); type: functional, Betapolyomavirus macacae;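 also: Confirmatory-stage PubChem screen for compounds that inhibit SV40 T antigen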
[1] = inhibitors of intracellular T. cruzi replication, confirmation, NIH3T3 host cells, beta-gal luminescence (AID 2044); type: functional, cell-based;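 also: intracellular parasites grown in NIH/3T3 mouse fibroblasts as host cells; luminescent beta-galactosidase reporter signal from transgenic T. cruzi replicating inside host cells; inhibitors lower the luminescence signal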
[2] = biological target: T1, Replicative DNA helicase DnaB (Mycobacterium tuberculosis, UniProt P9WMR3); assay: DnaB intein splicing inhibitors, dose response, biochemical, cell-free fluorescence (AID 449749); type: functional
T1 sequence (P9WMR3 whole entry): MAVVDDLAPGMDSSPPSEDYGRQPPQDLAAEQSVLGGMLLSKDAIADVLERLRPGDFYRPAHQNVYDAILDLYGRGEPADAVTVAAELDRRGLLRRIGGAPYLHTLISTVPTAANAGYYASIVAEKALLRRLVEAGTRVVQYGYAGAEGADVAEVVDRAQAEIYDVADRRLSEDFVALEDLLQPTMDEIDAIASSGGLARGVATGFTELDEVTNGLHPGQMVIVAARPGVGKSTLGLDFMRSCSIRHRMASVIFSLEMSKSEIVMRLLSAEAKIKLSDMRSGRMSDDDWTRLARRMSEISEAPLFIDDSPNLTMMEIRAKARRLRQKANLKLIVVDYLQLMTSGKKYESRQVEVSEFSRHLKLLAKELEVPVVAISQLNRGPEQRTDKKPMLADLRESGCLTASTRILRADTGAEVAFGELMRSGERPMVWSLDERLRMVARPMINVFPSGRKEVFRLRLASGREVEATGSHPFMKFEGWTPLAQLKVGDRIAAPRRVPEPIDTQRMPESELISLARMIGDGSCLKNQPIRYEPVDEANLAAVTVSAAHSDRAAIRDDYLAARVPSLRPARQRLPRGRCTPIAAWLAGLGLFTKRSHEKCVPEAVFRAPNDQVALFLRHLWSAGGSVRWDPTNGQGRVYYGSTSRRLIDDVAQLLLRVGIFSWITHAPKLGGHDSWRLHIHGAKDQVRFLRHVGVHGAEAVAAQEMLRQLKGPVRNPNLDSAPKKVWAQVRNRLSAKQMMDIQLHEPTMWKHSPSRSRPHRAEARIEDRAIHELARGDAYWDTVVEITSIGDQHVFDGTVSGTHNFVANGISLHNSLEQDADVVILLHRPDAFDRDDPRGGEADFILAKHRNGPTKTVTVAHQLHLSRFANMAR

Protein RecA = biological target: T2, Protein RecA (Mycobacterium tuberculosis, UniProt P9WHJ3); assay: Fluorescence Cell-Free Homogeneous Dose Retest to Identify Inhibitors of RecA-Intein Splicing Activity. [Related pubchem assays (depositor defined):AID2097, AID2223, AID489010, AID492950]; type: functional
T2 sequence (P9WHJ3 whole entry): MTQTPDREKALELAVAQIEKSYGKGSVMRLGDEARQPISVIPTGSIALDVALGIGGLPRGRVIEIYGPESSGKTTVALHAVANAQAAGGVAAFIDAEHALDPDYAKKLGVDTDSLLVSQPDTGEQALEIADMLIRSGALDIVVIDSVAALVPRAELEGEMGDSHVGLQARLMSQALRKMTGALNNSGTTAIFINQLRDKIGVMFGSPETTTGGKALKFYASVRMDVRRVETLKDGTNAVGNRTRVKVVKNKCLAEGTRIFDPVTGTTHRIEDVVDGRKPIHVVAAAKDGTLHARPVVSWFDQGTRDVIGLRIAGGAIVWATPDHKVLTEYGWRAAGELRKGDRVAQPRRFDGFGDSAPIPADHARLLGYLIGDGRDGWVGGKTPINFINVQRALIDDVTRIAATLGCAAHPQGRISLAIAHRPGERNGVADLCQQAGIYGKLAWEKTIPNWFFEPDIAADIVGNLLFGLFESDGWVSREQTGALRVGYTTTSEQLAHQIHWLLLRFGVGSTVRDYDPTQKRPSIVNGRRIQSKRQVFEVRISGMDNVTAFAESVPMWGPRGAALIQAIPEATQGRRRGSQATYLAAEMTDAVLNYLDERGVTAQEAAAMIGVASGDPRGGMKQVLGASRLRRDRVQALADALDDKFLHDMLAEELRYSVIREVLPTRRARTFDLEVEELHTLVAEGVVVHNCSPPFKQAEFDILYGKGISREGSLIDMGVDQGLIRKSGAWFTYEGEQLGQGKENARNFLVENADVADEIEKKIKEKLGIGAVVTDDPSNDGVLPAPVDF

[3] = cytotoxicity toward NIH3T3 fibroblasts, dose response, counter-screen, cell-based, ATP luminescence, mouse fibroblasts (AID 2010); type: functional;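 also: cells exposed to compound for about 90 hours before reading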
Genome polyprotein = Genome polyprotein (Hepatitis C virus, UniProt Q2Q167); assay: HCV core protein dimerization inhibitors, dose response, biochemical, TR-FRET (AID 2159); parameters: species or system Hepacivirus hominis;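 also: blocks dimerization of HCV core protein measured by TR-FRET between tagged core106 pairs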
[4] = biological target: T3, Dual specificity protein phosphatase 6 (Rattus norvegicus, UniProt Q64346)
T3 sequence (Q64346 whole entry): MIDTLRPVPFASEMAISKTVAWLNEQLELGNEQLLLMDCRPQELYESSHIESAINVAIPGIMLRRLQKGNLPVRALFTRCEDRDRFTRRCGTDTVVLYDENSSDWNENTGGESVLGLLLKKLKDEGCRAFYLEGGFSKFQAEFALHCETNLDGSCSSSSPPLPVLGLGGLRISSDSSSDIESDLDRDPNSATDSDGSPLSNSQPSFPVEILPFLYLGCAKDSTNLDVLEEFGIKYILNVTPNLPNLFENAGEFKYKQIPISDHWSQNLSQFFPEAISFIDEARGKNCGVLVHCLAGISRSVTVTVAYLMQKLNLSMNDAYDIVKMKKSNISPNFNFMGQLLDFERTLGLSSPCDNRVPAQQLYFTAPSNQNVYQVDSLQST

[5] = biological target: Glyceraldehyde-3-phosphate dehydrogenase (Homo sapiens, UniProt P04406)
[6] = biological target: T3, Dual specificity protein phosphatase 6; assay: MKP-3 phosphatase inhibitors, primary screen, biochemical, rat enzyme, in vitro (AID 425)
[7] = biological target: Eukaryotic translation initiation factor 4E (Mus musculus, UniProt P63073); assay: eIF4E–eIF4G protein interaction inhibitors, dose response, biochemical, TR-FRET (AID 855); type: functional;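 also: potency for disrupting eIF4E binding to eIF4GI seen as loss of FRET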
[8] = biological target: T3, Dual specificity protein phosphatase 6; type: functional
[9] = biological target: Induced myeloid leukemia cell differentiation protein Mcl-1 (Homo sapiens, UniProt Q07820); assay: MCL1-BIM BH3 interaction inhibitors, dose response, biochemical, fluorescence polarization, BIM-BH3 peptide, 1536-well (AID 2217)
[10] = biological target: T4, Tyrosine-protein phosphatase non-receptor type 7 (Homo sapiens, UniProt P35236); type: functional
T4 sequence (P35236 whole entry): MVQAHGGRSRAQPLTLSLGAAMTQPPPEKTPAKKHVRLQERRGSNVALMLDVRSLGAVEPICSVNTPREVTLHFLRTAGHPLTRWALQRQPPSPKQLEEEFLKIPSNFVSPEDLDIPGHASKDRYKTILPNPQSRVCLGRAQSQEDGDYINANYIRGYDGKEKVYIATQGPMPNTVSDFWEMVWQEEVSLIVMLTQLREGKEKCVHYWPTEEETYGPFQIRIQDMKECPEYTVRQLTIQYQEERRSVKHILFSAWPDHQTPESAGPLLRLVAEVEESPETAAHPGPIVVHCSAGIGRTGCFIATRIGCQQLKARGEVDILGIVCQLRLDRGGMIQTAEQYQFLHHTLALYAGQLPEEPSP

Bcl-2-like protein 1 = Bcl-2-like protein 1 (Homo sapiens, UniProt Q07817); assay: BCL-XL inhibitors, dose response, selectivity assay for MCL1 inhibitor project, biochemical, fluorescence polarization, 1536-well (AID 2218)
Bcl-2-like protein 10 = Bcl-2-like protein 10 (Homo sapiens, UniProt Q9HD36); assay: Biochemical TR3 FP assay of Bcl-B inhibitor potency, EC50 (AID 1243); type: functional
Chain of Bcl-2-like protein 10 (Q9HD36 whole entry): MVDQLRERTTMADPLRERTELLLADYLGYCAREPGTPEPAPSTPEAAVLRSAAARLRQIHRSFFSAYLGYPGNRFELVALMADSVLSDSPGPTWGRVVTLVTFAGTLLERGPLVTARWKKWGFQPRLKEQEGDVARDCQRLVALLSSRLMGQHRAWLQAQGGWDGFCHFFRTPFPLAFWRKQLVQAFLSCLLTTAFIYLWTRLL

Chain of Eukaryotic translation initiation factor 4E (P63073 whole entry): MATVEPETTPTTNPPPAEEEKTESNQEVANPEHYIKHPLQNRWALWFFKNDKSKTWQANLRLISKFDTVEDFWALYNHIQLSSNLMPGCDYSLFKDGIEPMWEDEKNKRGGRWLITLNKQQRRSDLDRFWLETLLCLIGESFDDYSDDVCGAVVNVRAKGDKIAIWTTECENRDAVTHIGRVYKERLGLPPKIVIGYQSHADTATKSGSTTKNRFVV
Chain of Large T antigen (P03070 whole entry): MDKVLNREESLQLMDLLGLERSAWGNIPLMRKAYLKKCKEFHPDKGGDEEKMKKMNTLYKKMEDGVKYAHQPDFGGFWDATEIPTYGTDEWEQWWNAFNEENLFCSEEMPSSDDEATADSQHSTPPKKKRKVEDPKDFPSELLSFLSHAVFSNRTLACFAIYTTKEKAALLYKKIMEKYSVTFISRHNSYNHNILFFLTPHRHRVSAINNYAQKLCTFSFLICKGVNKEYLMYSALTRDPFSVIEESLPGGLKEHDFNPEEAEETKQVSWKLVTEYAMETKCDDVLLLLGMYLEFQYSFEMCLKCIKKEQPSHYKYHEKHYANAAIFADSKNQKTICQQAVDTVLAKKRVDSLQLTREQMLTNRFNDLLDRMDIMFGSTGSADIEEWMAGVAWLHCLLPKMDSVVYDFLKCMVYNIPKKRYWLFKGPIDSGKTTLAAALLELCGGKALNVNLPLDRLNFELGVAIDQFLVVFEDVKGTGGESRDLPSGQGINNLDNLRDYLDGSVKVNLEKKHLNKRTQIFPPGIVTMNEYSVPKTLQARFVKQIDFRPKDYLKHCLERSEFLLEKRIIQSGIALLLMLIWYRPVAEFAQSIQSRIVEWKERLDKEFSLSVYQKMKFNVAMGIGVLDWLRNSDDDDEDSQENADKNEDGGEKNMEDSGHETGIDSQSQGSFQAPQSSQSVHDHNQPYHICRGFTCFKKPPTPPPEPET
Chain of NS3 (A3EZJ3 whole entry): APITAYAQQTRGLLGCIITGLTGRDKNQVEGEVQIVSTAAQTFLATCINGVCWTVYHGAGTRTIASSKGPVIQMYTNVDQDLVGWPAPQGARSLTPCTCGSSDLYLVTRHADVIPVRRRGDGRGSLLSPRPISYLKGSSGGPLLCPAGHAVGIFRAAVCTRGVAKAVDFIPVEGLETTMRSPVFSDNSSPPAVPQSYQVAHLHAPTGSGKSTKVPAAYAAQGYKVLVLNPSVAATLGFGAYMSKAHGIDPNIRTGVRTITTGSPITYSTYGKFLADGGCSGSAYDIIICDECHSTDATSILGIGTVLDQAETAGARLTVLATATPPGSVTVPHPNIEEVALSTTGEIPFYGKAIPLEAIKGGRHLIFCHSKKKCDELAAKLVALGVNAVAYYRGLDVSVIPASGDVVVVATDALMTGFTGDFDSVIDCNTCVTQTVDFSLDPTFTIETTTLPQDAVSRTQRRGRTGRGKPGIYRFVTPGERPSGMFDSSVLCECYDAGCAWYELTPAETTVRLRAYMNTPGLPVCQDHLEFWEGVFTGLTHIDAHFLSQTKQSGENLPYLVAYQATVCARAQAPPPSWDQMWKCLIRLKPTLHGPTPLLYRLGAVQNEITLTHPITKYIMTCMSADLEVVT
Chain of Glyceraldehyde-3-phosphate dehydrogenase (P04406 whole entry): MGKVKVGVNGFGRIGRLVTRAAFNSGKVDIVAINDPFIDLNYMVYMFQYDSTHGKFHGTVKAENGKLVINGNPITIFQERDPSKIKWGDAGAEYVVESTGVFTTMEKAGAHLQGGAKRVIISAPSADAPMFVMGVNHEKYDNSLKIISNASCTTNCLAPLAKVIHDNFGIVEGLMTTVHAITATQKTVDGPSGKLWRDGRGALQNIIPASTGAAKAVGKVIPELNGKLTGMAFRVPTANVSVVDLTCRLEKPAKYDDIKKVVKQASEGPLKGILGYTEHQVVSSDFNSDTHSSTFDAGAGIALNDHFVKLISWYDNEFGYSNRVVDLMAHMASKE
Chain of Genome polyprotein (Q2Q167 whole entry): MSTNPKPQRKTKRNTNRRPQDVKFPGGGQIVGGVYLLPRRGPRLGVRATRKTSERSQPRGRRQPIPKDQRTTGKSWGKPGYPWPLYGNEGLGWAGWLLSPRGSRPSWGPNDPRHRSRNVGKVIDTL
Chain of Bcl-2-like protein 1 (Q07817 whole entry): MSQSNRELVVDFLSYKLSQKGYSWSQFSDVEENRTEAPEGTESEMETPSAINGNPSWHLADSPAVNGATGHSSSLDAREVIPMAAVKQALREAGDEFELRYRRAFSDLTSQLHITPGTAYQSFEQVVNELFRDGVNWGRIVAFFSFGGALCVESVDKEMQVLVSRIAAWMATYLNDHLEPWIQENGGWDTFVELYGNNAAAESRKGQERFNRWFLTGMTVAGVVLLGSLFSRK
Chain of Induced myeloid leukemia cell differentiation protein Mcl-1 (Q07820 whole entry): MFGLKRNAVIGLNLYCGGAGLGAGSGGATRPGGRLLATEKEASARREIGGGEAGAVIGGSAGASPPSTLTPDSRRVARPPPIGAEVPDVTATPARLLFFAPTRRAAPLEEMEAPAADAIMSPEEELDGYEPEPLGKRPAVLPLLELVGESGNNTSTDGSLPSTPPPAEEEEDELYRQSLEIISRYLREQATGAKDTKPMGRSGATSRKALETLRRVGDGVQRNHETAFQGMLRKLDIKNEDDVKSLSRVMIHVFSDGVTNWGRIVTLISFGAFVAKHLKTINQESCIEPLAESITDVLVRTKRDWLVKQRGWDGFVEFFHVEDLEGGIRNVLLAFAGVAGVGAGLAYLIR

O=C1NC(=O)N(c2ccccc2)C(=O)/C1=C\c1ccc([N+](=O)[O-])s1
IC50 (NS3): 15.7 µM (not active) | IC50 (Large T antigen): 42.1 µM (active)

O=C(CNC(=O)c1ccccc1)N/N=C/c1ccc([N+](=O)[O-])o1
EC50 [1]: < 0.1 µM (active) | AC50 [2]: > 380 µM (inactive) | EC50 (Protein RecA): > 380 µM (inactive) | EC50 [3]: > 60 µM (not active) | EC50 (cells): 0.022 µM (active)

CCCCCC#CCC#CCC#CCC#CCCCC(=O)O
IC50 (Genome polyprotein): 46.3 µM (not active) | IC50 [4]: 25.1 µM (active) | IC50 [5]: > 100 µM (not active) | IC50 [6]: 0.832 µM (active) | IC50 [7]: 32.1 µM (inactive) | IC50 [8]: 30.4 µM (active) | IC50 [9]: 0.441 µM (active) | IC50 [10]: 15.4 µM (active) | IC50 (Bcl-2-like protein 1): > 109 µM (not active)

CCSc1nc(NN)c2c3c(sc2n1)CN(C)CC3
EC50 (Bcl-2-like protein 10): 7.43 µM (active)
